We go through two compounds from patent publication US6329400A, “Formamide compounds as therapeutic agents” (Glaxo Wellcome Inc., priority 1998, dated 2001).

For one assay, the system named is serum TNFα. In words: Murine LPS-Stimulated Serum TNF Inhibition Protocol. As to conditions: 40 mg/kg, 10 min prior to LPS, mice, 90 min after LPS. The class given is in vivo. The protocol:
Murine LPS--Stimulated Serum TNF Inhibition Protocol
The potency of compounds of the invention as inhibitors of serum TNFα elevation in mice treated with lipopolysaccharide (LPS) is determined as follows; a) for subcutaneous (s.c.) administration, test compound is dissolved in DMSO and added to a mixture of 0.9% sodium chloride solution and 30% Trappsol HPB-20 (Cyclodextrin Technology Development Inc., Gainesville, Fla. USA) for a final DMSO concentration of 1%. The dosing solution is sonicated briefly and 0.2 mL is injected subcutaneously 10 min prior to LPS injection, b) for per oral (p.o.) administration, test compounds are formulated in 0.2 mL of PBS and 0.1% Tween 80 and given orally via gavage 10 min prior to LPS administration.
C3/hen female mice are injected intraperitoneally with 200 μg/kg LPS (Escherichia coli, Serotype 0111:B4, Sigma Chemical Co, St. Louis, Mo.) in PBS and sacrificed 90 min later by CO2 asphyxiation. Blood is immediately taken from the caudal vena cava and plasma prepared and frozen at -80° C. Plasma concentrations of TNF are measured by ELISA (Genzyme Co., Cambridge Mass.).

Another assay addresses T1, TNFα converting enzyme (Homo sapiens, UniProt P78536).
T1 construct: Membrane preparation from MonoMac 6 cells; endogenous in cells; host or cells: MonoMac 6 cells (membrane preparation, subfractionated extract)
Nature of the assay: TNFα Converting Enzyme Inhibition Protocol. The class given is biochemical. As to conditions: cell-free, MonoMac 6 membrane preparation; IC50 equivalent to Ki at [S]<<Km. Here is the method:
B. TNFα Converting Enzyme Inhibition Protocol
The reaction is quenched by addition of streptavidin SPA beads (Amersham RPNQ0006), with excess binding capacity relative to substrate, suspended in 250 mM EDTA, pH 8.0. Binding is complete within 15 minutes and plates are counted in a Wallac 1450 Microbeta liquid scintillation counter. Percent inhibition is calculated at each inhibitor concentration and the data were plotted using standard curve fitting programs. IC50 values were determined from these curves.

In a further assay the target is stromelysin-1 (MMP-3) (Homo sapiens, UniProt P08254). Nature of the assay: Matrix Metalloprotease Inhibition Protocol, stromelysin-1. The settings on record: fluorogenic substrate, pH 7.6; IC50 equivalent to Ki at [S]<<Km. Type of assay: biochemical. The protocol: (§1) A. Matrix Metalloprotease Inhibition Protocol
(§2) Assays are conducted in a total volume of 0.180 mL assay buffer (200 mM NaCl, 50 mM Tris, 5 mM CaCl2, 10 μM ZnSO4, 0.005% Brij 35, pH 7.6) in each well of a black 96 well microtiter plate. 19 kD collagenase-1, 20 kD collagenase-3, stromelysin-1,and 50 kD gelatinase B concentrations are adjusted to 500 pM, 30 pM, 5 nM, and 100 pM, respectively. A dose response is generated using an eleven-point, 3-fold serial dilution with initial starting test compound concentrations of 100, 10, or 1 μM. Inhibitor and enzyme reactions are incubated for 30 minutes at ambient temperature and then initiated with 10 μM fluorogenic substrate (above). The product formation is measured at Excitation343 /Emission450 nm after 45-180 minutes using a Fluostar SLT fluorescence analyzer. Percent inhibition is calculated at each inhibitor concentration and the data were plotted using standard curve fitting programs. IC50 values were determined from these curves. Assays were run at low substrate concentration ([S]<<Km) such that the calculated IC50 values are equivalent to Ki within experimental error.

The target in assay [1] is 50 kD truncated gelatinase B (MMP-9). Nature of the assay: Matrix Metalloprotease Inhibition Protocol, gelatinase B. The class given is biochemical. The settings on record: fluorogenic substrate, pH 7.6; IC50 equivalent to Ki at [S]<<Km. Here is the method:
as §1
as §2, with “curves.” for “curves. Assays were run at low substrate concentration ([S]<<Km) such that the calculated IC50 values are equivalent to Ki within experimental error.”

Assay [2] addresses 20 kD truncated collagenase-3 (MMP-13). In words: Matrix Metalloprotease Inhibition Protocol, collagenase-3. The class given is biochemical. As to conditions: fluorogenic substrate, pH 7.6; IC50 equivalent to Ki at [S]<<Km. Here is the method: as §1
as §2, with “curves.” for “curves. Assays were run at low substrate concentration ([S]<<Km) such that the calculated IC50 values are equivalent to Ki within experimental error.”

Assay [3] addresses T2, 19 kD truncated collagenase-1 (MMP-1) (Homo sapiens, UniProt P03956).
T2 construct: 19 kD truncated collagenase-1 (MMP-1)
T2 sequence (P03956 101-269 limits assumed): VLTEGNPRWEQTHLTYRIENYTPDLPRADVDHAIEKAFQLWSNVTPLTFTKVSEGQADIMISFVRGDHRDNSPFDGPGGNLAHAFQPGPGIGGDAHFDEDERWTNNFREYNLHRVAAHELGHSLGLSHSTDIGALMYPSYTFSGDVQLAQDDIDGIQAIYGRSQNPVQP
Nature of the assay: Matrix Metalloprotease Inhibition Protocol, collagenase-1. Type of assay: biochemical. As to conditions: fluorogenic substrate, pH 7.6; IC50 equivalent to Ki at [S]<<Km. The protocol:
as §1, §2

In general, Ki refers to the equilibrium dissociation constant of an inhibitor or competing ligand from its target.

Structures are written as SMILES. Some results are limits rather than exact numbers.

T1 sequence (P78536 215-824): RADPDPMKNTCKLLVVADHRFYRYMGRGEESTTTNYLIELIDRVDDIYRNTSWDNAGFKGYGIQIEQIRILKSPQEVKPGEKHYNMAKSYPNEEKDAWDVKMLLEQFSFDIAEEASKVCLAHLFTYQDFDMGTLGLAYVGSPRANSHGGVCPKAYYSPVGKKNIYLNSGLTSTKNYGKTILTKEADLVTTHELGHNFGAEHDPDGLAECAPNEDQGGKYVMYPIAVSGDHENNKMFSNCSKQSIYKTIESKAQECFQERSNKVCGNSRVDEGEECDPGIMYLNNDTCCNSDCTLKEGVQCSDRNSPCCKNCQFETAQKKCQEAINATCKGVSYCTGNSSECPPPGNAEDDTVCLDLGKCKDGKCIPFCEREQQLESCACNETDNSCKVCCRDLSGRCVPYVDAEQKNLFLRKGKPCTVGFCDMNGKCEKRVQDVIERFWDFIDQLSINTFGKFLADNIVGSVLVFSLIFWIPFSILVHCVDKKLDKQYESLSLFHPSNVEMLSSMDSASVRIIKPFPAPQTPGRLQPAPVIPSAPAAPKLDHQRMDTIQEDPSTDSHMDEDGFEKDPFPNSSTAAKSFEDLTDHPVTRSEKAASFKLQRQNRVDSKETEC
Sequence of stromelysin-1 (MMP-3) (P08254 100-477): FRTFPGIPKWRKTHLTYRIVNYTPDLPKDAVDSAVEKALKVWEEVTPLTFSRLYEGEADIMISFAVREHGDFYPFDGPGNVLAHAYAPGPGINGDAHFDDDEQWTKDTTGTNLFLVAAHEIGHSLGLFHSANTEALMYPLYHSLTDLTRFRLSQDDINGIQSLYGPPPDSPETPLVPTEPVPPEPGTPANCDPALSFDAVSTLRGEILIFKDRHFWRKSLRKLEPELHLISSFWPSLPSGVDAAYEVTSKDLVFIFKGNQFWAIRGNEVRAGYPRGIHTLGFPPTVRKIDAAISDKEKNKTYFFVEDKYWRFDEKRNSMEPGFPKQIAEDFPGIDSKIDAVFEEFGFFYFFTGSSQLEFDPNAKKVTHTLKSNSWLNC

In the case of `CCC[C@@H]([C@@H](Cc1ccc(C)s1)C(=O)N[C@H](C(=O)Nc1nccs1)[C@@H](C)OCc1ccccn1)N(O)C=O` [Example 146, (2R,3S)-3-(Formyl-hydroxyamino)-2-(5-methyl-2-thiophenemethyl)hexanoic Acid [(1S,2R)-2-(2-Pyridylmethoxy)-1-(1,3-thiazol-2-ylcarbamoyl)-1-propyl]amide], the “Percentage Inhibition of Serum TNFα” value with serum TNFα (s.c.) is on record as “++ (50%-75%)”.
On to `CC(C)(C)[C@H](NC(=O)[C@H](CCCc1ccccc1)[C@H](CCC(F)(F)F)N(O)C=O)C(=O)Nc1nccs1` [Example 183, (2R,3S)-3-(Formyl-hydroxyamino)-2-(3-phenyl-1-propyl)-6,6,6-trifluorohexanoic Acid [(1S)-2,2-Dimethyl-1-(1,3-thiazol-2-ylcarbamoyl)-1-propyl]amide], for which the Ki is 0.1 to 0.5 µM at TNFα converting enzyme; 0.1 to 0.5 µM at stromelysin-1 (MMP-3); below 0.1 µM in assay [1]; below 0.1 µM in assay [2]; above 1 µM in assay [3]. The “Percentage Inhibition of Serum TNFα” value with serum TNFα (p.o.) is recorded as “++ (50%-75%)”.
